According to PubChem BioAssay (NCI):
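Briefly, cells in 96-well plates were exposed to five compound concentrations for 48 h, and endpoints were estimated by linear interpolation. At the GI50, growth is halved. TGI: concentration producing complete growth inhibition.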

Tests used:
Test in all cases: growth of human tumour cells (NCI), 48 h
[1] = test system: HL-60(TB) leukemia
[2] = test system: U251 CNS
[3] = test system: K-562 leukemia
[4] = test system: SF-539 CNS
[5] = test system: HOP-92 NSCLC
[6] = test system: T-47D breast

Row | SMILES | GI50 [1] [µM] | TGI [1] [µM] | GI50 [2] [µM] | TGI [2] [µM] | GI50 [3] [µM] | TGI [3] [µM] | TGI [4] [µM] | TGI [5] [µM] | TGI [6] [µM] | GI50 [4] [µM] | GI50 [5] [µM] | GI50 [6] [µM]
1 | C[C@H](c1ccc(Cl)cc1N)N1C(=O)c2cc(I)ccc2N(CCCN2CCN(C)CC2)C(=O)[C@@H]1c1ccc(Cl)cc1 | 1.89 | 3.69 | 1.52 | 2.85 | 1.57 | 3.3 |  |  |  |  |  | 
2 | CCCCCCCCCCCCCCCCC1=CC(=O)C=C(OC)C1=O |  | > 100 |  | 93.8 |  | > 100 | > 100 | > 100 |  |  |  | 
3 | O=C(O)C(=O)Cc1ccc2c(c1)OCO2 |  | > 100 |  | > 100 |  | > 100 | > 100 | > 100 | > 100 |  |  | 
4 | CC(C)C1C(=O)N2CCCC2C2(O)OC(NC(=O)C3C=C4c5cccc6[nH]cc(c56)CC4N(C)C3)(C(C)C)C(=O)N12 (stereo not given) |  | 48.5 |  | 70.3 |  |  | 52.4 | 30.1 | > 100 |  |  | 
5 | COc1ccc(-c2coc3ncnc(N)c23)cc1 | > 25 | > 25 | > 25 | > 25 | > 25 | > 25 | > 25 | > 25 | > 25 | > 25 | > 14 | > 25
6 | CCC1CCc2nc3sc(C(=O)Nc4ccccc4F)c(N)c3cc2C1 (stereo not given) | 0.302 | 0.978 | > 100 | > 100 | 0.402 | > 100 | > 100 | > 100 | > 100 |  | 4 | > 100
7 | C#C[C@@]1(O)[C@@H](CO)O[C@@H](n2cc(Cl)c3c(N)ncnc32)[C@@H]1O | 0.0341 | 0.197 |  |  | 0.0993 | > 100 | 1.45 | 3.53 | 0.489 | 0.324 | 0.454 | 0.0573
8 | O=c1oc2ccc(Cl)cc2c(=O)n1-c1ccc(Cl)cc1F |  |  | 0.566 | > 31.6 | 0.422 | > 100 | 3.7 | 0.49 | 2.2 | 0.462 | 0.143 | 0.36
9 | CCOC(=O)[C@H](CSSc1ncnc2cc[nH]c12)NC(=O)[C@@H](C)c1ccc2cc(OC)ccc2c1 | 1.04 | > 100 | 4.77 | > 100 | 0.156 | > 100 | > 100 | 41 | > 100 | 0.478 | 0.39 | 0.0375
10 | O=c1[nH]cnc2c(C3OC(CO)C(O)C3O)[nH]nc12 (stereo not given) |  | > 100 |  | > 100 |  | > 100 | > 100 |  | > 100 |  |  | 
11 | COc1cc2c(c(OC)c1OC)-c1ccc([O-])c(=O)cc1[C@@H](NC(C)=O)CC2.COc1cc2c(c(OC)c1OC)-c1ccc([O-])c(=O)cc1[C@@H](NC(C)=O)CC2.[Cu+2] | 2.05 | 4.82 | 3.48 | > 100 | 2.48 | > 100 | 4.53 | > 100 | > 100 | 1.88 | 17.5 | 7.95
12 | Oc1c(Br)cc(Br)cc1CN(Cc1cc(Br)cc(Br)c1O)C1CCCCC1 |  |  |  | 74.9 |  | > 100 |  | > 100 | > 100 |  |  | 
13 | Cc1cc(NC(=O)c2ccc(NS(=O)(=O)CCO)cc2N2CCC3(CC2)CC3)nc(N2CCC(F)(F)CC2)n1 | 19.4 | > 57.1 | 1.5 | 22.7 | 3.59 | > 51.4 | 16 | 29.6 | 31.8 | 0.0776 | 14.5 | 12.5
14 | N=c1ccn2c(n1)OC1C(OP(=O)(O)O)C(CO)OC12 (stereo not given) |  | 13.6 |  | > 100 |  | > 100 | > 100 | > 100 | > 100 |  |  | 
15 | CS(=O)(=O)c1ccc(N/N=C/c2c(-c3ccc(S(C)(=O)=O)cc3)[nH]c3ccc(F)cc23)cc1 | 2.59 | > 50 | 1.47 | > 50 | 2 | > 50 | 2.11 | > 50 | > 50 | 0.676 | 2.18 | 1.41
16 | COc1cc(N2CCC(N3CCN(C)CC3)CC2)ccc1Nc1ncc(Cl)c(Nc2ccccc2P(C)(C)=O)n1 | 1.67 | > 35.6 | 3.79 | > 100 | 3.45 | > 100 | 7.5 | 2.41 | > 100 | 2.1 | 0.4 | > 100
17 | COc1ccc(-c2cc(-c3ccc(Nc4nc(Nc5ccc(Cl)cc5)nc(Nc5ccc(Cl)cc5)n4)cc3)no2)cc1 | 1.87 | 12.1 | 11.2 | > 100 | 2.96 | 18.5 | 57.8 | 6.26 | > 100 | 17.2 | 1.91 | 6.26
18 | CC[C@H](C)c1occ2c(O)c(C(=O)O)c(=O)cc-2c1C |  | 41.7 |  | 74.6 |  | > 100 | 46.3 | 49.6 | 56.4 |  |  | 
19 | O=S(=O)(NCCNc1cc(-c2cn(-c3ccccc3)nc2-c2cccc(O)c2)ccn1)c1ccc(C(F)(F)F)cc1 | 2.17 | 4.77 | 2.65 | 7.28 | 2.48 | 6.58 | 3.48 | 6.39 | 6.73 | 1.59 | 1.97 | 1.84
20 | O=C1C=C(Nc2ccccc2)c2ncccc2C1=O | 0.842 | 3.84 | 0.348 | 1.2 |  |  | 1.21 | 2.97 | 3.58 | 0.356 | 1.49 | 1.27
21 | COc1ccc(OC)c(/C=C/c2nnc(Nc3ccc(Cl)cc3)o2)c1 | > 100 | > 100 | 3.81 | 14.3 | 92.8 | > 100 | 60.5 |  | > 100 | 11.8 |  | 2.54
